#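 Cultured in 96-well plates, cells were exposed to test compound for 48 hours across five concentrations. Here, GI50 denotes the concentration required for 50% inhibition of growth. TGI marks complete inhibition of growth.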
# Columns and labels:
# Assay in all cases: DTP human tumour cell line panel, 48 h
# 786-0 renal = system: 786-0 renal
# SK-MEL-5 melanoma = system: SK-MEL-5 melanoma
# COLO 205 colon = system: COLO 205 colon
# SK-MEL-2 melanoma = system: SK-MEL-2 melanoma
# HCT-15 colon = system: HCT-15 colon
# HS 578T breast = system: HS 578T breast
# U251 CNS = system: U251 CNS
# NCI-H23 lung = system: NCI-H23 lung
# EKVX NSCLC = system: EKVX NSCLC
# HCC-2998 colon = system: HCC-2998 colon
# A498 renal = system: A498 renal
# BT-549 breast = system: BT-549 breast
# LOX IMVI melanoma = system: LOX IMVI melanoma
# HCT-116 colon = system: HCT-116 colon
# UACC-257 melanoma = system: UACC-257 melanoma
# SK-OV-3 ovarian = system: SK-OV-3 ovarian
# SNB-75 CNS = system: SNB-75 CNS
# SN12C renal = system: SN12C renal
# SW-620 colon = system: SW-620 colon
# SK-MEL-28 melanoma = system: SK-MEL-28 melanoma
# OVCAR-4 ovarian = system: OVCAR-4 ovarian
# RPMI-8226 leukemia = system: RPMI-8226 leukemia
# CCRF-CEM leukemia = system: CCRF-CEM leukemia
# SNB-19 CNS = system: SNB-19 CNS
# MDA-MB-231 breast = system: MDA-MB-231 breast
# SF-295 CNS = system: SF-295 CNS
# DU-145 prostate = system: DU-145 prostate
# IGROV1 ovarian = system: IGROV1 ovarian
# UO-31 renal = system: UO-31 renal
# TK-10 renal = system: TK-10 renal
# A549 NSCLC = system: A549 NSCLC
# CAKI-1 renal = system: CAKI-1 renal
# OVCAR-8 ovarian = system: OVCAR-8 ovarian
# HT29 colon = system: HT29 colon
# SF-268 CNS = system: SF-268 CNS
# MALME-3M melanoma = system: MALME-3M melanoma
# MCF7 breast = system: MCF7 breast
# OVCAR-3 ovarian = system: OVCAR-3 ovarian
# MDA-MB-435 = system: MDA-MB-435
# NCI-H226 lung = system: NCI-H226 lung
# PC-3 prostate = system: PC-3 prostate
# HOP-92 NSCLC = system: HOP-92 NSCLC
# UACC-62 melanoma = system: UACC-62 melanoma
# NCI/ADR-RES ovarian = system: NCI/ADR-RES ovarian
# RXF 393 renal = system: RXF 393 renal
# ACHN renal = system: ACHN renal
# M14 melanoma = system: M14 melanoma
# KM12 colon = system: KM12 colon
# OVCAR-5 ovarian = system: OVCAR-5 ovarian
# T-47D breast = system: T-47D breast
# NCI-H460 lung = system: NCI-H460 lung
# NCI-H522 lung = system: NCI-H522 lung
# HOP-62 NSCLC = system: HOP-62 NSCLC
# SF-539 CNS = system: SF-539 CNS
# HL-60(TB) leukemia = system: HL-60(TB) leukemia
# K-562 leukemia = system: K-562 leukemia
# MOLT-4 leukemia = system: MOLT-4 leukemia
smiles,measurement,setting,value
CS(=O)CCCCCN=C=S (stereo not drawn),GI50,786-0 renal,5.68 µM
same,TGI,786-0 renal,19.5 µM
same,GI50,SK-MEL-5 melanoma,5.3 µM
same,TGI,SK-MEL-5 melanoma,17.9 µM
same,GI50,COLO 205 colon,3.21 µM
same,TGI,COLO 205 colon,12 µM
same,GI50,SK-MEL-2 melanoma,3.43 µM
same,TGI,SK-MEL-2 melanoma,14.7 µM
same,GI50,HCT-15 colon,2.9 µM
same,TGI,HCT-15 colon,12.1 µM
same,GI50,HS 578T breast,6.38 µM
same,TGI,HS 578T breast,36 µM
same,GI50,U251 CNS,4.42 µM
same,TGI,U251 CNS,15.8 µM
same,GI50,NCI-H23 lung,4.21 µM
same,TGI,NCI-H23 lung,24.5 µM
same,GI50,EKVX NSCLC,10.4 µM
same,TGI,EKVX NSCLC,24.8 µM
same,GI50,HCC-2998 colon,13.9 µM
same,TGI,HCC-2998 colon,28.8 µM
same,GI50,A498 renal,10.4 µM
same,TGI,A498 renal,23.5 µM
same,GI50,BT-549 breast,3.07 µM
same,TGI,BT-549 breast,11.5 µM
same,GI50,LOX IMVI melanoma,0.782 µM
same,TGI,LOX IMVI melanoma,10.3 µM
same,GI50,HCT-116 colon,2.86 µM
same,TGI,HCT-116 colon,10.2 µM
same,GI50,UACC-257 melanoma,4.35 µM
same,TGI,UACC-257 melanoma,19.7 µM
same,GI50,SK-OV-3 ovarian,13.7 µM
same,TGI,SK-OV-3 ovarian,27.3 µM
same,GI50,SNB-75 CNS,3.01 µM
same,TGI,SNB-75 CNS,16.5 µM
same,GI50,SN12C renal,3.44 µM
same,TGI,SN12C renal,11.4 µM
same,GI50,SW-620 colon,4.1 µM
same,TGI,SW-620 colon,15.9 µM
same,GI50,SK-MEL-28 melanoma,4.07 µM
same,TGI,SK-MEL-28 melanoma,16.8 µM
same,GI50,OVCAR-4 ovarian,5.11 µM
same,TGI,OVCAR-4 ovarian,22.8 µM
same,GI50,RPMI-8226 leukemia,3.79 µM
same,TGI,RPMI-8226 leukemia,14.5 µM
same,GI50,CCRF-CEM leukemia,4.1 µM
same,TGI,CCRF-CEM leukemia,16.3 µM
same,GI50,SNB-19 CNS,16.1 µM
same,TGI,SNB-19 CNS,32.1 µM
same,GI50,MDA-MB-231 breast,4.76 µM
same,TGI,MDA-MB-231 breast,17.4 µM
same,GI50,SF-295 CNS,17.1 µM
same,TGI,SF-295 CNS,31.4 µM
same,GI50,DU-145 prostate,2.81 µM
same,TGI,DU-145 prostate,10.6 µM
same,GI50,IGROV1 ovarian,4.88 µM
same,TGI,IGROV1 ovarian,21.6 µM
same,GI50,UO-31 renal,4 µM
same,TGI,UO-31 renal,17.2 µM
same,GI50,TK-10 renal,3.83 µM
same,TGI,TK-10 renal,10.3 µM
same,GI50,A549 NSCLC,7.52 µM
same,TGI,A549 NSCLC,24.2 µM
same,GI50,CAKI-1 renal,3.69 µM
same,TGI,CAKI-1 renal,13.8 µM
same,GI50,OVCAR-8 ovarian,4.93 µM
same,TGI,OVCAR-8 ovarian,22.1 µM
same,GI50,HT29 colon,3.47 µM
same,TGI,HT29 colon,11.1 µM
same,GI50,SF-268 CNS,4.06 µM
same,TGI,SF-268 CNS,17.4 µM
same,GI50,MALME-3M melanoma,4.12 µM
same,TGI,MALME-3M melanoma,18.6 µM
same,GI50,MCF7 breast,2.3 µM
same,TGI,MCF7 breast,13.2 µM
same,GI50,OVCAR-3 ovarian,3.07 µM
same,TGI,OVCAR-3 ovarian,10.1 µM
same,GI50,MDA-MB-435,3.57 µM
same,TGI,MDA-MB-435,15.8 µM
same,GI50,NCI-H226 lung,17.5 µM
same,TGI,NCI-H226 lung,44.4 µM
same,GI50,PC-3 prostate,11.6 µM
same,TGI,PC-3 prostate,25.6 µM
same,GI50,HOP-92 NSCLC,3.55 µM
same,TGI,HOP-92 NSCLC,9.52 µM
same,GI50,UACC-62 melanoma,2.93 µM
same,TGI,UACC-62 melanoma,12.5 µM
same,GI50,NCI/ADR-RES ovarian,4.72 µM
same,TGI,NCI/ADR-RES ovarian,22 µM
same,GI50,RXF 393 renal,3.37 µM
same,TGI,RXF 393 renal,9.45 µM
same,GI50,ACHN renal,4.07 µM
same,TGI,ACHN renal,16.5 µM
same,GI50,M14 melanoma,3.3 µM
same,TGI,M14 melanoma,14.6 µM
same,GI50,KM12 colon,3.33 µM
same,TGI,KM12 colon,13 µM
same,GI50,OVCAR-5 ovarian,10.6 µM
same,TGI,OVCAR-5 ovarian,25.5 µM
same,GI50,T-47D breast,2.32 µM
same,TGI,T-47D breast,7.56 µM
same,GI50,NCI-H460 lung,2.53 µM
same,TGI,NCI-H460 lung,6.64 µM
same,GI50,NCI-H522 lung,1.99 µM
same,TGI,NCI-H522 lung,5.87 µM
same,GI50,HOP-62 NSCLC,12.5 µM
same,TGI,HOP-62 NSCLC,29.4 µM
CCCCCCCC/C=C/CCCCCCCC1=NCC[N+]1(CCO)CCO,GI50,786-0 renal,4.8 µM
same,TGI,786-0 renal,22.1 µM
same,GI50,SK-MEL-5 melanoma,2.24 µM
same,TGI,SK-MEL-5 melanoma,5.68 µM
same,GI50,COLO 205 colon,1.98 µM
same,TGI,COLO 205 colon,4.91 µM
same,GI50,SK-MEL-2 melanoma,2.69 µM
same,TGI,SK-MEL-2 melanoma,6.01 µM
same,GI50,HCT-15 colon,3.16 µM
same,TGI,HCT-15 colon,11 µM
same,GI50,HS 578T breast,2.16 µM
same,TGI,HS 578T breast,7.66 µM
same,GI50,U251 CNS,1.42 µM
same,TGI,U251 CNS,2.86 µM
same,GI50,NCI-H23 lung,3.05 µM
same,TGI,NCI-H23 lung,16 µM
same,GI50,EKVX NSCLC,4.71 µM
same,TGI,EKVX NSCLC,26.4 µM
same,GI50,HCC-2998 colon,3.67 µM
same,TGI,HCC-2998 colon,20.3 µM
same,GI50,A498 renal,2.21 µM
same,TGI,A498 renal,14.2 µM
same,GI50,BT-549 breast,3.17 µM
same,TGI,BT-549 breast,10.8 µM
same,GI50,SF-539 CNS,3.7 µM
same,TGI,SF-539 CNS,13.1 µM
same,GI50,HCT-116 colon,2.81 µM
same,TGI,HCT-116 colon,8.78 µM
same,GI50,HL-60(TB) leukemia,1.75 µM
same,TGI,HL-60(TB) leukemia,4.68 µM
same,GI50,K-562 leukemia,1.52 µM
same,TGI,K-562 leukemia,4.34 µM
same,GI50,UACC-257 melanoma,2.25 µM
same,TGI,UACC-257 melanoma,8.42 µM
same,GI50,SK-OV-3 ovarian,10.1 µM
same,TGI,SK-OV-3 ovarian,24.4 µM
same,GI50,SNB-75 CNS,2.39 µM
same,TGI,SNB-75 CNS,9.52 µM
same,GI50,SN12C renal,3.2 µM
same,TGI,SN12C renal,12.6 µM
same,GI50,SW-620 colon,1.82 µM
same,TGI,SW-620 colon,4.38 µM
same,GI50,SK-MEL-28 melanoma,9.71 µM
same,TGI,SK-MEL-28 melanoma,21.6 µM
same,GI50,OVCAR-4 ovarian,3.87 µM
same,TGI,OVCAR-4 ovarian,14.9 µM
same,GI50,RPMI-8226 leukemia,2.71 µM
same,TGI,RPMI-8226 leukemia,10.8 µM
same,GI50,CCRF-CEM leukemia,1.6 µM
same,TGI,CCRF-CEM leukemia,4.46 µM
same,GI50,SNB-19 CNS,4.49 µM
same,TGI,SNB-19 CNS,25.2 µM
same,GI50,MDA-MB-231 breast,2.47 µM
same,TGI,MDA-MB-231 breast,8.81 µM
same,GI50,SF-295 CNS,1.75 µM
same,TGI,SF-295 CNS,4.07 µM
same,GI50,DU-145 prostate,4.41 µM
same,TGI,DU-145 prostate,16.2 µM
same,GI50,IGROV1 ovarian,1.59 µM
same,TGI,IGROV1 ovarian,3.35 µM
same,GI50,UO-31 renal,3.97 µM
same,TGI,UO-31 renal,19.7 µM
same,GI50,TK-10 renal,1.94 µM
same,TGI,TK-10 renal,4.39 µM
same,GI50,A549 NSCLC,2.77 µM
same,TGI,A549 NSCLC,10.9 µM
same,GI50,CAKI-1 renal,2.41 µM
same,TGI,CAKI-1 renal,8.32 µM
same,GI50,MOLT-4 leukemia,2.23 µM
same,TGI,MOLT-4 leukemia,6.58 µM
same,GI50,OVCAR-8 ovarian,2.66 µM
same,TGI,OVCAR-8 ovarian,10 µM
same,GI50,HT29 colon,1.38 µM
same,TGI,HT29 colon,3.25 µM
same,GI50,SF-268 CNS,3.25 µM
same,TGI,SF-268 CNS,13 µM
same,GI50,MALME-3M melanoma,3.19 µM
same,TGI,MALME-3M melanoma,12.4 µM
same,GI50,MCF7 breast,3.94 µM
same,TGI,MCF7 breast,18.6 µM
same,GI50,OVCAR-3 ovarian,1.94 µM
same,TGI,OVCAR-3 ovarian,4.42 µM
same,GI50,MDA-MB-435,2.35 µM
same,TGI,MDA-MB-435,7.95 µM
same,GI50,NCI-H226 lung,4.16 µM
same,TGI,NCI-H226 lung,19.8 µM
same,GI50,PC-3 prostate,1.97 µM
same,TGI,PC-3 prostate,6.17 µM
same,GI50,HOP-92 NSCLC,1.62 µM
same,TGI,HOP-92 NSCLC,5.53 µM
same,GI50,UACC-62 melanoma,5 µM
same,TGI,UACC-62 melanoma,21.4 µM
same,GI50,NCI/ADR-RES ovarian,11.8 µM
same,TGI,NCI/ADR-RES ovarian,37.7 µM
same,GI50,RXF 393 renal,1.73 µM
same,TGI,RXF 393 renal,4.2 µM
same,GI50,ACHN renal,6.11 µM
same,TGI,ACHN renal,20.8 µM
same,GI50,M14 melanoma,2.26 µM
same,TGI,M14 melanoma,5.77 µM
same,GI50,KM12 colon,1.87 µM
same,TGI,KM12 colon,3.61 µM
same,GI50,OVCAR-5 ovarian,4.98 µM
same,TGI,OVCAR-5 ovarian,18.9 µM
same,GI50,T-47D breast,7.08 µM
same,TGI,T-47D breast,22.7 µM
same,GI50,NCI-H460 lung,1.69 µM
same,TGI,NCI-H460 lung,3.39 µM
same,GI50,NCI-H522 lung,1.61 µM
same,TGI,NCI-H522 lung,4.46 µM
same,GI50,HOP-62 NSCLC,6.36 µM
same,TGI,HOP-62 NSCLC,19.8 µM
